The values below come from patent US12590062B2, “PD-1/PD-L1 inhibitors” (Gilead Sciences, Inc., priority 2017, dated 2026).

As a reminder, the EC50 is the concentration needed to bring the measured effect to its halfway point. The term IC50 denotes the concentration that gives 50% inhibition.

In experiment [1] the target is T1, PD-1/PD-L1 interaction (Homo sapiens, UniProt Q9NZQ7).
T1 construct: expressed in transfected cells; host or cells: CHO cells (aAPC-PD-L1) co-cultured with Jurkat cells overexpressing PD-1 and an NFAT-luciferase reporter
Nature of the experiment: PD-1/PD-L1 NFAT reporter co-culture assay. It is filed as cell-based. As to conditions: Jurkat PD-1 NFAT-luciferase cells co-cultured with aAPC-PD-L1 CHO cells, 6 hrs at 37° C.; read-out: EC50 NFAT Luciferase. The method, boiled down: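 Jurkat cells overexpressing PD-1 with NFAT-luciferase mixed with compounds and plated onto CHO aAPCs expressing anti-CD3 and PD-L1, RPMI with 2% FBS. Co-culture 6 h at 37 °C; luminescence read with ONE-Glo. EC50 from four-parameter fit.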

In experiment [2] the target is PD-1/PD-L1 (Homo sapiens, UniProt Q9NZQ7). The experiment can be described thus: PD-1/PD-L1 biochemical protein-protein interaction assay (ALPHA). The experiment is classed as binding. As to conditions: 0.3 nM His tagged PD-L1, 2.5 nM biotinylated Fc-PD-1, 60 minutes at 25° C., read-out: IC50 PD-L1-PD-1 Alpha IC50-mono PD-L1-fcP-D1. The essentials:
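Bead proximity read-out: compound-driven loss of ALPHA signal between anti-His acceptor and streptavidin donor beads (20 μg/mL acceptor). Proteins: 0.3 nM His-PD-L1, 2.5 nM biotin-Fc-PD-1, final. 60 min, 25° C, Hepes pH 7.4 buffer. IC50 via four-parameter dose-response fit.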

Chain of PD-1/PD-L1 (Q9NZQ7 19-238 limits assumed): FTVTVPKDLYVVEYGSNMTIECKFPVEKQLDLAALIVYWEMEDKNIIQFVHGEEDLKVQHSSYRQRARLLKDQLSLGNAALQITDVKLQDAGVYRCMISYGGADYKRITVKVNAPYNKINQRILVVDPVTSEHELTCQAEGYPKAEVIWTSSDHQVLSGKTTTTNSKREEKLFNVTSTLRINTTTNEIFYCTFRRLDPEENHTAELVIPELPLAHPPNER
T1 sequence (Q9NZQ7 19-290): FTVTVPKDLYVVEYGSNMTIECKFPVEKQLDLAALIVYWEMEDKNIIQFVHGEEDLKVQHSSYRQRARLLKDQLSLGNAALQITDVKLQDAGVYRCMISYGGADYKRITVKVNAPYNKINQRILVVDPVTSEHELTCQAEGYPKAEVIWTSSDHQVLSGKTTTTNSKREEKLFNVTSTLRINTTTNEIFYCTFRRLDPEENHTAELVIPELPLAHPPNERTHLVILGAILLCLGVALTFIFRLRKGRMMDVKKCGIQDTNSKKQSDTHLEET

Consider `Cc1c(COc2ccc(CNC[C@@H](O)CC(=O)O)cc2C(F)(F)F)cccc1-c1cccc(COc2ccc(CNC[C@@H](O)CC(=O)O)cc2C(F)(F)F)c1C` [Example 224, (3S,3′S)-4,4′-((((((2,2′-dimethyl-[1,1′-biphenyl]-3,3′-diyl)bis(methylene))bis(oxy))bis(3-(trifluoromethyl)-4,1-phenylene))bis(methylene))bis(azanediyl))bis(3-hydroxybutanoic acid)], for which the EC50 in experiment [1] was 24900 nM. For the same molecule, the IC50 in experiment [2] stood at 1.8 nM.

Regarding `COc1nc(/C=C/c2cccc(-c3cccc(/C=C/c4ccc(CNC[C@@H](O)CC(=O)O)c(OC)n4)c3C)c2C)ccc1CNC[C@@H](O)CC(=O)O` [Example 238, (3S,3′S)-4,4′-(((((1E,1′E)-(2,2′-dimethyl-[1,1′-biphenyl]-3,3′-diyl)bis(ethene-2,1-diyl))bis(2-methoxypyridine-6,3-diyl))bis(methylene))bis(azanediyl))bis(3-hydroxybutanoic acid)], the concentration giving a half-maximal response (EC50) in experiment [1] came out at 2120 nM. Moreover, the IC50 in experiment [2] was determined as 0.9 nM.

For the molecule `COc1nc(/C=C/c2cccc(-c3cccc(/C=C/c4nc(OC)c(CNC[C@@H](O)CC(=O)O)cc4Cl)c3C)c2C)c(Cl)cc1CNC[C@@H](O)CC(=O)O` [Example 239, (3S,3′S)-4,4′-(((((1E,1′E)-(2,2′-dimethyl-[1,1′-biphenyl]-3,3′-diyl)bis(ethene-2,1-diyl))bis(5-chloro-2-methoxypyridine-6,3-diyl))bis(methylene))bis(azanediyl))bis(3-hydroxybutanoic acid)], the EC50 in experiment [1] was found to be 1120 nM. Besides, in experiment [2], the IC50 is 8.1 nM.

Consider `Cc1cc(OCc2cccc(-c3cccc(COc4cc(C)c(CNC[C@@H](O)CC(=O)O)c(OCc5cncc(C#N)c5)c4)c3C)c2C)cc(OCc2cncc(C#N)c2)c1CNC[C@@H](O)CC(=O)O` [Example 246, (3S,3′S)-4,4′-((((((2,2′-dimethyl-[1,1′-biphenyl]-3,3′-diyl)bis(methylene))bis(oxy))bis(2-((5-cyanopyridin-3-yl)methoxy)-6-methyl-4,1-phenylene))bis(methylene))bis(azanediyl))bis(3-hydroxybutanoic acid)], for which, in experiment [1], the EC50 turned out to be 1200 nM. Besides, the IC50 in experiment [2] was 1 nM.

As to `CC(=O)NCCNCc1ccc(OCc2cccc(-c3cccc(COc4ccc(CNCCNC(C)=O)c(-c5cncc(C#N)c5)c4)c3C)c2C)cc1-c1cncc(C#N)c1` [Example 250, N,N′-(((((((2,2′-dimethyl-[1,1′-biphenyl]-3,3′-diyl)bis(methylene))bis(oxy))bis(2-(5-cyanopyridin-3-yl)-4,1-phenylene))bis(methylene))bis(azanediyl))bis(ethane-2,1-diyl))diacetamide], in experiment [1], the concentration for a half-maximal effect (EC50) is 7490 nM. In addition, the IC50 in experiment [2] worked out at 63.6 nM.

As to `Cc1c(COc2ccc(CNC[C@@H](O)CC(=O)O)c(OCc3cncc(C#N)c3)n2)cccc1-c1cccc(COc2ccc(CNC[C@@H](O)CC(=O)O)c(=O)n2Cc2cncc(C#N)c2)c1C` [Example 251, (S)-4-(((6-((3′-(((5-((((S)-3-carboxy-2-hydroxypropyl)amino)methyl)-1-((5-cyanopyridin-3-yl)methyl)-6-oxo-1,6-dihydropyridin-2-yl)oxy)methyl)-2,2′-dimethyl-[1,1′-biphenyl]-3-yl)methoxy)-2-((5-cyanopyridin-3-yl)methoxy)pyridin-3-yl)methyl)amino)-3-hydroxybutanoic acid], the EC50 in experiment [1] amounted to 25900 nM. In addition, the half-inhibitory concentration (IC50) in experiment [2] stood at 2 nM.

In the case of `Cc1c(COc2nc(OCc3cncc(C#N)c3)c(CNC[C@H](O)CC(=O)O)cc2Br)cccc1-c1cccc(COc2nc(OCc3cncc(C#N)c3)c(CNC[C@H](O)CC(=O)O)cc2Br)c1C` [Example 252, (3R,3′R)-4,4′-((((((2,2′-dimethyl-[1,1′-biphenyl]-3,3′-diyl)bis(methylene))bis(oxy))bis(5-bromo-2-((5-cyanopyridin-3-yl)methoxy)pyridine-6,3-diyl))bis(methylene))bis(azanediyl))bis(3-hydroxybutanoic acid)], the EC50 in experiment [1] is 333 nM. The half-maximal inhibitory concentration (IC50) in experiment [2] amounted to 0.3 nM.

For the molecule `COc1ccc(COc2nc(OCc3cccc(-c4cccc(COc5nc(OCc6ccc(OC)nc6)c(CNC[C@@H](O)CC(=O)O)cc5Br)c4C)c3C)c(Br)cc2CNC[C@@H](O)CC(=O)O)cn1` [Example 253, (3S,3′S)-4,4′-((((((2,2′-dimethyl-[1,1′-biphenyl]-3,3′-diyl)bis(methylene))bis(oxy))bis(5-bromo-2-((6-methoxypyridin-3-yl)methoxy)pyridine-6,3-diyl))bis(methylene))bis(azanediyl))bis(3-hydroxybutanoic acid)], the EC50 in experiment [1] stood at 304 nM. In addition, the IC50 in experiment [2] turned out to be 4.6 nM.

With `Cc1c(COc2cc(OCc3cncc(C#N)c3)c(CNCCO)cc2Br)cccc1-c1cccc(COc2cc(OCc3cncc(C#N)c3)c(CNCCO)cc2Br)c1C` [Example 254, 5,5′-((((((2,2′-dimethyl-[1,1′-biphenyl]-3,3′-diyl)bis(methylene))bis(oxy))bis(4-bromo-6-(((2-hydroxyethyl)amino)methyl)-3,1-phenylene))bis(oxy))bis(methylene))dinicotinonitrile], the EC50 in experiment [1] is 689 nM. Further, in experiment [2], the IC50 is 20.8 nM.

As to `Cc1c(COc2cc(OCc3cncc(C#N)c3)c(CNC[C@@H](O)CO)cc2Br)cccc1-c1cccc(COc2cc(OCc3cncc(C#N)c3)c(CNC[C@@H](O)CO)cc2Br)c1C` [Example 257, 5,5′-((((((2,2′-dimethyl-[1,1′-biphenyl]-3,3′-diyl)bis(methylene))bis(oxy))bis(4-bromo-6-((((R)-2,3-dihydroxypropyl)amino)methyl)-3,1-phenylene))bis(oxy))bis(methylene))dinicotinonitrile], the EC50 in experiment [1] was 657 nM. In addition, in experiment [2], the IC50 is 24 nM.

On to `Cc1c(COc2cc(OCc3cncc(C#N)c3)c(CN3CC[C@@H]3CO)cc2Br)cccc1-c1cccc(COc2cc(OCc3cncc(C#N)c3)c(CN3CC[C@@H]3CO)cc2Br)c1C` [Example 258, 5,5′-((((((2,2′-dimethyl-[1,1′-biphenyl]-3,3′-diyl)bis(methylene))bis(oxy))bis(4-bromo-6-(((R)-2-(hydroxymethyl)azetidin-1-yl)methyl)-3,1-phenylene))bis(oxy))bis(methylene))dinicotinonitrile], for which the EC50 in experiment [1] turned out to be 419 nM. Also, in experiment [2], the half-maximal inhibitory concentration (IC50) was 6.3 nM.

Take `Cc1c(COc2cc(OCc3cncc(C#N)c3)c(CNC[C@H](O)CO)cc2Br)cccc1-c1cccc(COc2cc(OCc3cncc(C#N)c3)c(CNC[C@H](O)CO)cc2Br)c1C` [Example 259, 5,5′-((((((2,2′-dimethyl-[1,1′-biphenyl]-3,3′-diyl)bis(methylene))bis(oxy))bis(4-bromo-6-((((S)-2,3-dihydroxypropyl)amino)methyl)-3,1-phenylene))bis(oxy))bis(methylene))dinicotinonitrile]: the EC50 in experiment [1] was 511 nM. For the same molecule, the IC50 in experiment [2] turned out to be 22.7 nM.

With `Cc1c(COc2cc(OCc3cncc(C#N)c3)c(CNCc3ncc[nH]3)cc2Br)cccc1-c1cccc(COc2cc(OCc3cncc(C#N)c3)c(CNCc3ncc[nH]3)cc2Br)c1C` [Example 261, 5,5′-((((((2,2′-dimethyl-[1,1′-biphenyl]-3,3′-diyl)bis(methylene))bis(oxy))bis(6-((((1H-imidazol-2-yl)methyl)amino)methyl)-4-bromo-3,1-phenylene))bis(oxy))bis(methylene))dinicotinonitrile], in experiment [1], the EC50 came to 3170 nM. Moreover, the IC50 in experiment [2] amounted to 120 nM.

With `Cc1c(COc2cc(OCc3nccs3)c(CNC[C@@H](O)CC(=O)O)cc2Cl)cccc1-c1cccc(COc2cc(OCc3nccs3)c(CNC[C@@H](O)CC(=O)O)cc2Cl)c1C` [Example 262, (3S,3′S)-4,4′-((((((2,2′-dimethyl-[1,1′-biphenyl]-3,3′-diyl)bis(methylene))bis(oxy))bis(5-chloro-2-(thiazol-2-ylmethoxy)-4,1-phenylene))bis(methylene))bis(azanediyl))bis(3-hydroxybutanoic acid)], the EC50 in experiment [1] worked out at 8620 nM. Besides, the IC50 in experiment [2] turned out to be 1.5 nM.

Regarding `COc1nc(OCc2cccc(-c3cccc(COc4nc(OC)c(CNC[C@@H](O)CC(=O)O)cc4S(C)(=O)=O)c3C)c2C)c(S(C)(=O)=O)cc1CNC[C@@H](O)CC(=O)O` [Example 263, (3S,3′S)-4,4′-((((((2,2′-dimethyl-[1,1′-biphenyl]-3,3′-diyl)bis(methylene))bis(oxy))bis(2-methoxy-5-(methylsulfonyl)pyridine-6,3-diyl))bis(methylene))bis(azanediyl))bis(3-hydroxybutanoic acid)], the concentration giving a half-maximal response (EC50) in experiment [1] was determined as 36400 nM. In addition, the IC50 in experiment [2] was determined as 1.8 nM.

Regarding `Cc1c(COc2ccc(CNC[C@@H](O)CC(=O)O)c(OCc3cc(C#N)ccc3F)c2)cccc1-c1cccc(COc2ccc(CNC[C@@H](O)CC(=O)O)c(OCc3cc(C#N)ccc3F)c2)c1C` [Example 265, (3S,3′S)-4,4′-((((((2,2′-dimethyl-[1,1′-biphenyl]-3,3′-diyl)bis(methylene))bis(oxy))bis(2-((5-cyano-2-fluorobenzyl)oxy)-4,1-phenylene))bis(methylene))bis(azanediyl))bis(3-hydroxybutanoic acid)], the EC50 in experiment [1] is 7060 nM. The IC50 in experiment [2] amounted to 3.2 nM.
